Source: PubChem BioAssay (NCI)
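Cells were grown in 96-well plates and exposed to each compound for 48 hours at five concentrations; endpoints were interpolated linearly between bracketing concentrations, or set to the highest concentration if not reached. The concentration for full growth arrest is given as TGI.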

Key:
Experiment in all cases: NCI-60 cell line screen, 48 h
DU-145 prostate = test system: DU-145 prostate
SK-MEL-28 melanoma = test system: SK-MEL-28 melanoma
MOLT-4 leukemia = test system: MOLT-4 leukemia
LOX IMVI melanoma = test system: LOX IMVI melanoma
OVCAR-3 ovarian = test system: OVCAR-3 ovarian
BT-549 breast = test system: BT-549 breast
786-0 renal = test system: 786-0 renal
HOP-92 NSCLC = test system: HOP-92 NSCLC
HCT-116 colon = test system: HCT-116 colon
UO-31 renal = test system: UO-31 renal
RPMI-8226 leukemia = test system: RPMI-8226 leukemia
A498 renal = test system: A498 renal
SNB-19 CNS = test system: SNB-19 CNS
OVCAR-8 ovarian = test system: OVCAR-8 ovarian
UACC-257 melanoma = test system: UACC-257 melanoma
K-562 leukemia = test system: K-562 leukemia
NCI-H226 lung = test system: NCI-H226 lung
HS 578T breast = test system: HS 578T breast
SK-OV-3 ovarian = test system: SK-OV-3 ovarian

| SMILES | TGI (DU-145 prostate) [µM] | TGI (SK-MEL-28 melanoma) [µM] | TGI (MOLT-4 leukemia) [µM] | TGI (LOX IMVI melanoma) [µM] | TGI (OVCAR-3 ovarian) [µM] | TGI (BT-549 breast) [µM] | TGI (786-0 renal) [µM] | TGI (HOP-92 NSCLC) [µM] | TGI (HCT-116 colon) [µM] | TGI (UO-31 renal) [µM] | TGI (RPMI-8226 leukemia) [µM] | TGI (A498 renal) [µM] | TGI (SNB-19 CNS) [µM] | TGI (OVCAR-8 ovarian) [µM] | TGI (UACC-257 melanoma) [µM] | TGI (K-562 leukemia) [µM] | TGI (NCI-H226 lung) [µM] | TGI (HS 578T breast) [µM] | TGI (SK-OV-3 ovarian) [µM] |
| --- | --- | --- | --- | --- | --- | --- | --- | --- | --- | --- | --- | --- | --- | --- | --- | --- | --- | --- | --- |
| C[C@]12CC[C@H]3[C@@H](CC=C4C[C@@H](N5CCCC5)CC[C@@]43C)[C@@H]1C[C@H](N1CCOCC1)[C@@H]2O | > 100 | > 100 | > 100 | > 10 | > 100 | > 100 | > 100 | > 100 | > 100 | > 100 | > 100 | > 100 | > 100 | > 100 | > 100 | 74.3 | > 100 | > 100 | > 100 |
| CC[C@H](O)[C@H](C)C=C1SCCCS1 | > 100 | > 100 | > 100 | > 100 | > 100 | > 100 | > 100 | > 100 | > 100 | > 100 | > 100 | > 100 | – | > 100 | > 100 | > 100 | > 100 | > 100 | > 100 |
| Nn1c(COc2cccc(OCc3n[nH]c(=S)n3N)c2)n[nH]c1=S | > 100 | > 100 | 21.7 | > 100 | > 100 | > 100 | > 100 | > 100 | > 100 | > 100 | > 100 | > 100 | > 100 | > 100 | > 100 | > 100 | > 100 | > 100 | > 100 |
| CN(C)CCNC(=O)c1cccc2c(NCCN(C)C)c3ccccc3nc12 | 28.2 | 28.6 | 6.29 | 4.75 | 7.63 | 18.4 | 6.65 | 17.8 | 3.9 | 8.29 | 7.92 | 4.74 | 26.3 | 12.4 | 17.3 | 6.86 | 3.66 | 8.57 | 40.2 |
| COC(=O)NCCc1[nH]nc2c1C(=O)C=C(N1CCOCC1)C2=O | > 100 | > 100 | > 100 | > 100 | > 100 | > 100 | > 100 | > 100 | > 100 | > 100 | > 100 | > 100 | > 100 | > 100 | > 100 | > 100 | > 100 | > 100 | > 100 |
| CCCCCCCCOC1C(O)C(O)C(O)C(O)C12CO2 (configuration not stated) | > 100 | > 100 | > 100 | > 100 | > 100 | > 100 | > 100 | – | > 100 | > 100 | > 100 | > 100 | > 100 | > 100 | > 100 | > 100 | > 100 | > 100 | > 100 |
| Nc1nc(Cl)c(N)c(NCC2(CO)CC(OCc3ccccc3)C2)n1 (configuration not stated) | > 100 | > 100 | > 100 | > 100 | > 100 | > 100 | > 100 | > 100 | > 100 | > 100 | > 100 | > 100 | > 100 | > 100 | > 100 | > 100 | > 100 | > 100 | > 100 |
| O=CN1CCN(C(=O)c2ccc(Cl)cc2Cl)C1=S | > 100 | > 100 | > 100 | > 100 | > 100 | > 100 | > 100 | 98.7 | > 100 | – | > 100 | > 100 | > 100 | > 100 | > 100 | > 100 | > 100 | > 100 | > 100 |
| COC(=O)CCC(=O)NC1=C(Nc2ccc(OC)cc2)C(=O)c2ccccc2C1=O | 26.9 | 31.4 | 65.8 | 16.1 | 12.6 | 29 | 76.2 | 27 | 25 | 32.1 | 75.2 | 33.6 | 37.7 | 75.6 | 16.1 | > 86.8 | 35.3 | 72.6 | 88.1 |
| CC(O)c1cc2c(s1)C(=O)c1sccc1C2=O (configuration not stated) | 0.0347 | 0.479 | > 100 | 0.29 | – | 0.175 | 0.538 | 2.06 | 0.485 | 0.359 | – | 0.429 | 0.292 | 0.616 | 0.0358 | > 100 | 0.428 | > 100 | 4.18 |
| NC(N)=N/N=C/c1nc2n(c1[N+](=O)[O-])CCS2 | 88.2 | > 100 | 63.7 | 92.6 | 70.2 | > 100 | > 100 | > 100 | 54.1 | > 100 | > 100 | > 100 | > 100 | > 100 | 44.6 | – | > 100 | > 100 | > 100 |
| CCCCc1ccc(Nc2nc3c(ncn3C3CC(O)C(CN=[N+]=[N-])O3)c(=O)[nH]2)cc1 (configuration not stated) | > 100 | > 100 | > 100 | > 100 | > 100 | > 100 | > 100 | > 100 | > 100 | > 100 | > 100 | > 100 | > 100 | > 100 | > 100 | > 100 | > 100 | > 100 | > 100 |
